From publication PMC8248988, “A signal capture and proofreading mechanism for the KDEL-receptor explains selectivity and dynamic range in ER retrieval” (eLife, 2021)

How the values were obtained:
Assay type in all cases: cell-based, human
[1] = tested on: ERP44; assay: ER chaperone secretion assay, ERP44
Text: (§1) Figure 1. ER retrieval signal abundance and affinity are not correlated. (a) Sequence logos for ER resident proteins with C-terminal KDEL retrieval signals and variants thereof calculated using frequency or protein abundance ([Itzhak et al., 2017]; [Itzhak et al., 2016]). (b) Combined cellular concentrations of ER resident proteins with canonical KDEL, RDEL, and HDEL retrieval sequences in HeLa cells and mouse brain. (c) Competition binding assays for [^3H]-TAEHDEL and unlabelled TAEKDEL, TAERDEL, and TAEHDEL to the KDEL receptor. IC50 values for the competing peptides were used to calculate the apparent KDwith the Cheng-Prusoff equation ([Cheng and Prusoff, 1973]). (d) Endogenous KDEL receptor redistribution was measured in COS-7 cells in the absence (-ligand) or presence of K/R/H/A/DDEL (mScarlet-xDEL^sec). TGN46 was used as a Golgi marker. Scale bar is 10 µm. (e) The mean difference for K/R/H/A/DDEL comparisons against the shared no ligand control are shown as Cummings estimation plots. The individual data points for the fraction of KDEL receptor fluorescence in the Golgi are plotted on the upper axes with sample sizes and p values. Figure 1—source data 1. Source data for the ligand-induced KDELR receptor retrieval assays in Figure 1e. Figure 1—figure supplement 1. Abundance of ER resident proteins and chaperones in human cells and mouse brain. (a) The mean concentration of ER resident chaperones with the indicated ER retrieval sequence variant is plotted in the bar graph ([Itzhak et al., 2017]; [Itzhak et al., 2016]). […] Endogenous ER chaperone secretion was measured by western blotting after challenge with different retrieval signals, and plotted as a bar graph showing mean ± SEM (n = 3). […] (a) Distribution of human KDELR1 and (b) KDELR2 was measured in COS-7 cells in the absence (-ligand) or presence of K/R/H/A/DDEL retrieval signals (K/R/H/A/DDEL^sec). […] The fraction of KDEL receptor localised to the Golgi was measured before (no ligand) and after challenge with different retrieval signals as indicated. […]

[2] = tested on: ERP72; assay: ER chaperone secretion assay, ERP72
Text: Figure 1. ER retrieval signal abundance and affinity are not correlated. (a) Sequence logos for ER resident proteins with C-terminal KDEL retrieval signals and variants thereof calculated using frequency or protein abundance ([Itzhak et al., 2017]; [Itzhak et al., 2016]). (b) Combined cellular concentrations of ER resident proteins with canonical KDEL, RDEL, and HDEL retrieval sequences in HeLa cells and mouse brain. (c) Competition binding assays for [^3H]-TAEHDEL and unlabelled TAEKDEL, TAERDEL, and TAEHDEL to the KDEL receptor. IC50 values for the competing peptides were used to calculate the apparent KDwith the Cheng-Prusoff equation ([Cheng and Prusoff, 1973]). (d) Endogenous KDEL receptor redistribution was measured in COS-7 cells in the absence (-ligand) or presence of K/R/H/A/DDEL (mScarlet-xDEL^sec). TGN46 was used as a Golgi marker. Scale bar is 10 µm. […] The individual data points for the fraction of KDEL receptor fluorescence in the Golgi are plotted on the upper axes with sample sizes and p values. […] Endogenous ER chaperone secretion was measured by western blotting after challenge with different retrieval signals, and plotted as a bar graph showing mean ± SEM (n = 3). […] (a) Distribution of human KDELR1 and (b) KDELR2 was measured in COS-7 cells in the absence (-ligand) or presence of K/R/H/A/DDEL retrieval signals (K/R/H/A/DDEL^sec). […]

[3] = tested on: PDI; assay: ER chaperone secretion assay, PDI
Text: as §1

[4] = mean, HeLa S3, 24 hr, Western blot densitometry

ADEL [pcDNA3.1 hGHss-mScarlet-H. sapiens BiP639-654K651A (ADEL^SEC), secreted mScarlet fusion with human BiP C-terminus, ADEL signal]
ERP44 secretion after challenge with retrieval signal [1, 4]: 11.8
ERP44 secretion after challenge with retrieval signal ([1]; replicate 1): 8.7
ERP44 secretion after challenge with retrieval signal ([1]; replicate 2): 14.9
ERP72 secretion after challenge with retrieval signal [2, 4]: 4.2
ERP72 secretion after challenge with retrieval signal ([2]; replicate 2): 1.0
PDI secretion after challenge with retrieval signal [3, 4]: 6.6
PDI secretion after challenge with retrieval signal ([3]; replicate 1): 7.3
PDI secretion after challenge with retrieval signal ([3]; replicate 2): 6.0
